Data as given in patent US10640495B2, “Heterocycle derivatives having TrkA inhibitory activity” (Shionogi & Co., Ltd., priority 2015, dated 2020).
Read-outs that look alike come from different tables or passages of the source.

Target: human TrkA (Homo sapiens (Human), UniProt P04629)
Experiment: Human TrkA inhibition assay (Test Example 2)
Type: biochemical
Protocol: Seven point five μL per well of human TrkA (PV3144, Lifetechnologies, final concentration: 1 nmol/L) suspended in the assay buffer (100 mmol/L 4-(2-hydroxyethyl)-1-piperazineethanesulfonic acid (HEPES), 10 mmol/L magnecium chloride, 0.003 vol % Brij-35, 0.004 vol % Tween20 and 1 mmol/L dithiothreitol (DTT)) was applied in a 384 well plate and the plate was pre-incubated for 15 min at room temperature with 0.4 μL of each compound (final concentration: 200 μmol/L-1 pmol/L) dissolved in DMSO. Then, fluorescent substrate (FL-peptide 27, 760424, PerkinElmer, final concentration: 1.5 μmol/L) and ATP (final concentration 500 μmol/L) dissolved in the assay buffer was added in each well. After the incubation of 120 min at 37° C., fifteen μL of termination buffer (100 mmol/L HEPES, 40 mmol/L ethylenediaminetetraacetic acid (EDTA), 10 mmol/L magnecium chloride, 0.003 vol % Brij-35, 0.004 vol % Tween20, 1 mmol/L DTT and 0.16 vol % Coating Reagent 3) was added in each well to stop the enzyme reaction. Fluorescent intensities (FI) of phosphorylated and non-phosphorylated fluorescent substrates were measured by LabChip EZReader II (Caliper LifeSciences, Inc.), and conversion ratio (CR) was calculated by the following formula-1. The CR in the well applied with DMSO alone was used as a negative control and the CR in the well without applying TrkA was used as a positive control. The inhibitory effect of each compound on TrkA phosphorylation was calculated by the following formula-2. CR (%)=(FI of phosphorylated substrate/(FI of phosphorylated substrate+FI of non-phosphorylated substrate))×100 (Formula-1) Phosphorylation inhibition (%)=(1−(CR with compound treatment−CR of positive control)/(CR of negative control−CR of positive control))×100 (Formula-2)
IC50 values (nmol/L) were determined by the logistic regression using the inhibition data in 10 points of 3-fold dilution series at a compound concentration range of 20 nmol/L to 1 pmol/L, or 10 points of 3-fold dilution series at the range of 2 μmol/L to 0.1 nmol/L, or 10 points of 3-fold dilution series at the range of 200 μmol/L to 10 nmol/L, or 15 points of 3-fold dilution series at the range of 200 μmol/L to 0.04 nmol/L.
The evaluation results of the compounds in the present invention are indicated as follows. IC50 values of 0 to 100 nM, 100 to 1000 nM and over 1000 nM were shown as “A”, “B” and “C”, respectively.

[1] = Table 154, human TrkA inhibition, read-out: IC50
[2] = Table 152, human TrkA inhibition, read-out: IC50_nM
[3] = Table 155, human TrkA inhibition, read-out: IC50
[4] = Table 157, human TrkA inhibition, read-out: IC50
[5] = human TrkA 1 nmol/L, ATP 500 μmol/L, 120 min at 37° C., read-out: IC50 values (TrkA phosphorylation inhibition)
[6] = Table 153, human TrkA inhibition, read-out: IC50

human TrkA, sequence (P04629 440-796): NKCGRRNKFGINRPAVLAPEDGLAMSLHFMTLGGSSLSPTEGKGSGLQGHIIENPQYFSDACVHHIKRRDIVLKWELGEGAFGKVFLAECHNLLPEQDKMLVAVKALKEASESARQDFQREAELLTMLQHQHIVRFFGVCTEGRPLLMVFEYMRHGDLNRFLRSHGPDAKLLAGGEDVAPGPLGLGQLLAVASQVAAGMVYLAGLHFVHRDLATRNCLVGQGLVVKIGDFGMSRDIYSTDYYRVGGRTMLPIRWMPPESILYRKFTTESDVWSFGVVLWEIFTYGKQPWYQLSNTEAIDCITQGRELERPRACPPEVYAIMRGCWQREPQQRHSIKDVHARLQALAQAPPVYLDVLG

## COCCN1C[C@@H](NC(=O)Nc2c(C)c(-c3ccnc(C(=O)NO)c3)nn2-c2ccccc2)[C@H](c2ccc(F)c(F)c2)O1 (racemic) [Compound I-195]
[1]
  IC50: < 100 nM

## COCCC1C[C@@H](NC(=O)Nc2c(C)c(-c3ccc(C(=O)O)cc3)nn2-c2ccccc2)[C@H](c2ccccc2)O1 (some centres unmarked) [Compound I-15]
[2]
  IC50: < 100 nM

## COCCN1C[C@H](NC(=O)Nc2c(C)c(-c3cnc(C)nc3)nn2-c2ccccc2)[C@@H](c2cc(F)nc(F)c2)O1 [Compound I-362]
[3]
  IC50: > 1000 nM

## COCCN1C[C@@H](NC(=O)Nc2c(C)c(-c3ccc(C(=O)NOC)nc3)nn2-c2ccccc2)[C@H](c2ccc(F)c(F)c2)O1 (racemic) [Compound I-234]
[1]
  IC50: < 100 nM

## CCN1C[C@@H](NC(=O)Nc2c(C)c(OCCCCN(C)C)nn2-c2ccccc2)[C@H](c2ccc(F)c(F)c2)O1 (racemic) [Compound I-662]
[4]
  IC50: < 100 nM

## CCN1C[C@@H](NC(=O)Nc2c(C)c(OCC3CCN(C)CC3)nn2-c2ccccc2)[C@H](c2ccc(F)c(F)c2)O1 [Compound I-536]
[5]
  IC50: 4 nM

## COCCN1C[C@@H](NC(=O)Nc2c(C)c(-c3cnc4c(c3)nnn4C)nn2-c2ccccc2)[C@H](c2ccc(F)cc2)O1 (racemic) [Compound I-118]
[6]
  IC50: < 100 nM

## CCOc1ncc(-c2nn(-c3ccccc3)c(NC(=O)N[C@@H]3CN(CCOC)O[C@H]3c3ccnc(F)c3)c2C)cn1 (racemic) [Compound I-196]
[1]
  IC50: < 100 nM

## COCCN1C[C@@H](NC(=O)Nc2c(C)c(-c3cnc(C(=O)NC4CC4)c(C)c3)nn2-c2ccccc2)[C@H](c2cnc(F)c(F)c2)O1 [Compound I-254]
[1]
  IC50: < 100 nM

## CNC(=O)c1cc(-c2nn(-c3ccccc3)c(NC(=O)N[C@@H]3CN(Cc4csnn4)O[C@H]3c3ccc(F)c(F)c3)c2C)cn(C)c1=O (racemic) [Compound I-151]
[6]
  IC50: < 100 nM

## COCCN1C[C@@H](NC(=O)Nc2c(C)c(-c3cnc4c(c3)ncn4C3CCN(C)CC3)nn2-c2ccccc2)[C@H](c2ccnc(F)c2)O1 (racemic) [Compound I-426]
[3]
  IC50: < 100 nM

## CNC(=O)c1cc(-c2nn(-c3ccccc3)c(NC(=O)N[C@@H]3CN(CCOC)O[C@H]3c3ccnc(F)c3)c2C)nn(C)c1=O (racemic) [Compound I-302]
[5]
  IC50: 8.2 nM

## CCN1C[C@@H](NC(=O)Nc2c(C)c(OCCC3CCNCC3)nn2-c2ccccc2)[C@H](c2ccc(F)c(F)c2)O1 (racemic) [Compound I-671]
[4]
  IC50: < 100 nM

## CCN1C[C@@H](NC(=O)Nc2c(C)c(-c3cnc4c(c3)oc(=O)n4C)nn2-c2ccccc2)[C@H](c2ccc(F)c(F)c2)O1 (racemic) [Compound I-539]
Table 156, human TrkA inhibition, read-out: IC50
  IC50: < 100 nM

## COCCN1C[C@@H](NC(=O)Nc2c(C)c(-n3cnc(C)c3)nn2-c2ccccc2)[C@H](c2ccnc(F)c2)O1 (racemic) [Compound I-346]
[3]
  IC50: < 100 nM

## COCCN1C[C@@H](NC(=O)Nc2c(C)c(OCC3COC(C)(C)O3)nn2-c2ccccc2)[C@H](c2ccc(F)c(F)c2)O1 (some centres unmarked) [Compound I-614]
[4]
  IC50: < 100 nM

## COCCN1C[C@@H](NC(=O)Nc2c(C)c(-c3cnc(C4CCOCC4)nc3)nn2-c2ccccc2)[C@H](c2ccnc(F)c2)O1 (racemic) [Compound I-513]
[3]
  IC50: < 100 nM

## CCN1CCC(Oc2nn(-c3ccccc3)c(NC(=O)N[C@@H]3CN(CCOC)O[C@H]3c3ccc(F)c(F)c3)c2C)CC1 [Compound I-604]
[4]
  IC50: < 100 nM

## COCCN1C[C@@H](NC(=O)Nc2c(C)c(-c3ccc(CN(C)C)nc3)nn2-c2ccccc2)[C@H](c2ccc(F)c(F)c2)O1 [Compound I-638]
[5]
  IC50: 1.4 nM

## COCCN1C[C@@H](NC(=O)Nc2c(C)c(C3=CCN(c4ncc(Cl)cn4)CC3)nn2-c2ccccc2)[C@H](c2ccc(F)c(F)c2)O1 (racemic) [Compound I-153]
[6]
  IC50: < 100 nM

## COCCN1C[C@@H](NC(=O)Nc2c(C)c(-c3cnc(C(=O)NCC4CC4)c(C)c3)nn2-c2ccccc2)[C@H](c2ccnc(F)c2)O1 (racemic) [Compound I-170]
[6]
  IC50: < 100 nM

## COCC[C@@H]1C[C@@H](NC(=O)Nc2c(C)c(-c3cnn(C)c3)nn2-c2ccccn2)[C@H](c2ccc(F)c(F)c2)O1 (racemic) [Compound I-448]
[3]
  IC50: 100 to 1000 nM

## COCCN1C[C@@H](NC(=O)Nc2c(C)c(-c3cnc(N4C[C@H]5COC[C@@H](C4)N5C)nc3)nn2-c2ccccc2)[C@H](c2ccnc(F)c2)O1 (racemic) [Compound I-422]
[3]
  IC50: < 100 nM

## COCCN1C[C@@H](NC(=O)Nc2c(C)c(-c3cnc4c(c3)nc(C(F)(F)F)n4C)nn2-c2ccccc2)[C@H](c2ccnc(F)c2)O1 (racemic) [Compound I-226]
[1]
  IC50: < 100 nM

## COCCN1C[C@@H](NC(=O)Nc2c(C)c(-c3cnc(COC)nc3)nn2-c2ccccc2)[C@H](c2cnc(F)c(F)c2)O1 [Compound I-512]
[3]
  IC50: < 100 nM

## COCCN1C[C@@H](NC(=O)Nc2c(C)c(OCC(O)CO)nn2-c2ccccc2)[C@H](c2ccc(F)c(F)c2)O1 (some centres unmarked) [Compound I-615]
[4]
  IC50: < 100 nM

## COCCN1C[C@@H](NC(=O)Nc2c(C)c(-c3cnn(C)c3)nn2C2CC2)[C@H](c2ccc(F)c(F)c2)O1 (racemic) [Compound I-88]
[6]
  IC50: > 1000 nM

## COCCN1C[C@@H](NC(=O)Nc2c(C)c(OC3CCN(C)CC3)nn2-c2ccccc2)[C@H](c2ccc(F)c(F)c2)O1 [Compound I-603]
[4]
  IC50: < 100 nM

## COCCN1C[C@@H](NC(=O)Nc2c(C)c(-c3cc(C(=O)NC4CCOCC4)c(=O)n(C)c3)nn2-c2ccccc2)[C@H](c2ccnc(F)c2)O1 (racemic) [Compound I-108]
[5]
  IC50: 1 nM

## COCCN1C[C@@H](NC(=O)Nc2c(C)c(-c3cnc(C(=O)NC4CCOCC4)c(C)c3)nn2-c2ccccc2)[C@H](c2ccnc(F)c2)O1 (racemic) [Compound I-171]
[6]
  IC50: < 100 nM

## COCCN1C[C@@H](NC(=O)Nc2c(C)c(-c3cnn(C)c3)nn2-c2ccccc2)[C@H](c2ccnc(F)c2)O1 (racemic) [Compound I-91]
[6]
  IC50: < 100 nM

## CCN1C[C@@H](NC(=O)Nc2c(C)c(OCC3CNC3)nn2-c2ccccc2)[C@H](c2ccc(F)c(F)c2)O1 (racemic) [Compound I-657]
[4]
  IC50: < 100 nM

## COCC[C@@H]1C[C@@H](NC(=O)Nc2c(C)c(-c3cnc4c(cnn4C)c3)nn2-c2ccccc2)[C@H](c2ccc(F)c(F)c2)O1 (racemic) [Compound I-99]
[6]
  IC50: < 100 nM

## COCCN1C[C@@H](NC(=O)Nc2c(C)c(-c3cc(C(=O)NC4CCOCC4)c(=O)n(C)c3)nn2-c2ccccc2)[C@H](c2cnc(F)c(F)c2)O1 (racemic) [Compound I-74]
[6]
  IC50: < 100 nM

## CNC(=O)c1ccc(-c2nn(-c3ccccc3)c(NC(=O)N[C@@H]3CN(CCOC)O[C@H]3c3ccnc(F)c3)c2C)cn1 (racemic) [Compound I-452]
[3]
  IC50: < 100 nM

## CCN1C[C@@H](NC(=O)Nc2c(C)c(OC3CCN(C)CC3)nn2-c2ccccc2)[C@H](c2ccc(F)c(F)c2)O1 (racemic) [Compound I-631]
[4]
  IC50: < 100 nM

## COCC[C@@H]1C[C@@H](NC(=O)Nc2c(C)c(-c3cnn(C)c3)nn2-c2ccccc2)[C@H](c2ccnc(F)c2)O1 [Compound I-235]
[1]
  IC50: < 100 nM

## COCCN1C[C@@H](NC(=O)Nc2c(C)c(-c3ccc(OCc4ccccc4)nc3)nn2-c2ccccc2)[C@H](c2ccc(F)c(F)c2)O1 (racemic) [Compound I-27]
[2]
  IC50: < 100 nM

## COCCN1C[C@@H](NC(=O)Nc2c(C)c(-c3ccc(N4CCCC4)nc3)nn2-c2ccccc2)[C@H](c2ccnc(F)c2)O1 (racemic) [Compound I-283]
[1]
  IC50: < 100 nM

## CNC(=O)c1cc(-c2nn(-c3ccccc3)c(NC(=O)N[C@@H]3CN(CCOC)O[C@H]3c3ccc(F)c(F)c3)c2C)cnc1OC [Compound I-391]
[3]
  IC50: < 100 nM

## CNC(=O)c1cc(-c2nn(-c3ccccc3)c(NC(=O)N[C@@H]3CN(C)O[C@H]3c3ccc(F)c(F)c3)c2C)cnc1OC (racemic) [Compound I-469]
[3]
  IC50: < 100 nM

## COCCN1C[C@@H](NC(=O)Nc2c(C)c(-c3cnc(OC)nc3)nn2-c2ccccc2)[C@H](c2cnc(Cl)s2)O1 (racemic) [Compound I-157]
[6]
  IC50: < 100 nM

## COCCN1C[C@@H](NC(=O)Nc2c(C)c(-c3cnc4c(c3)nnn4C)nn2-c2ccccc2)[C@H](c2cnc(F)c(F)c2)O1 (racemic) [Compound I-127]
[6]
  IC50: < 100 nM

## COCCN1C[C@@H](NC(=O)Nc2c(C)c(-c3cnc4c(c3)CN(C)CC4)nn2-c2ccccc2)[C@H](c2ccnc(F)c2)O1 (racemic) [Compound I-440]
[3]
  IC50: < 100 nM
